Measured values as given in ChEMBL document CHEMBL1133484 (Bioorg Med Chem Lett, 2000).
Starred links: 1 amine or outer side, 2 acyl side, 3 side chain; linkers in the order of their positions; H or OH if unused. Non-standard residues stand in square brackets, D forms with d. Residues, ends and D or L forms follow the SMILES beside them. *: point of attachment. X2 = O=C([C@@H]1C[C@@H](CCCc2ccccc2)CN1[*:1])[*:2]; X3 = O=C([C@@H]1C[C@@H](CCc2ccccc2)CN1[*:1])[*:2]; Pro(4R-Bn) = O=C(O)[C@@H]1C[C@@H](Cc2ccccc2)CN1; CH2(1-naphthyl) = c1ccc2c(C*)cccc2c1; mXylylene = c1cc(C[*:1])cc(C[*:2])c1; oXylylene = c1ccc(C[*:2])c(C[*:1])c1; Glutaryl = O=C(CCCC(=O)[*:2])[*:1]; Hyp = O=C(O)[C@@H]1C[C@@H](O)CN1; Chg = N[C@H](C(=O)O)C1CCCCC1; Nva = CCC[C@H](N)C(=O)O; X1 = c1ccc2cc(C*)ccc2c1; Ac3c = NC1(C(=O)O)CC1; Meb = Cc1ccc(C*)cc1; CF3 = FC(F)(F)*

Experiments:
[1] = target: T1, NS3 (Hepatitis C virus, UniProt A3EZJ3); test: Inhibitory activity against NS3 protease complexed with NS4A cofactor peptide (NS3-4A pep); parameters: species or system Hepacivirus hominis
[2] = target: T2, Neutrophil elastase (Homo sapiens, UniProt P08246); test: Compound was evaluated for its inhibitory activity against human leukocyte elastase (HLE)
T2 sequence (P08246 whole entry): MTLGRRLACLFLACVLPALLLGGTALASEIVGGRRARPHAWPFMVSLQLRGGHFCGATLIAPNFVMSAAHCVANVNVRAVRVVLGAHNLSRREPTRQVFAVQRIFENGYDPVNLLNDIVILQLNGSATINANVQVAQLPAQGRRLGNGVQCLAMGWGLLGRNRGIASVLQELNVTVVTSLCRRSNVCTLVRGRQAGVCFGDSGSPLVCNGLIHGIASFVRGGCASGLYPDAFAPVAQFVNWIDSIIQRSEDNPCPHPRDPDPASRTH

[3] = target: Cathepsin B (Homo sapiens, UniProt P07858); test: Compound was evaluated for its inhibitory activity against cathepsin B
[4] = target: T1, NS3; test: Compound was evaluated for its binding affinity against NS3 protease complexed with NS4A cofactor peptide (NS3-4A pep); parameters: species or system Hepacivirus hominis
[5] = target: Chymotrypsinogen B (Homo sapiens, UniProt P17538); test: Compound was evaluated for its inhibitory activity against Chymotrypsinogen
Chain of Chymotrypsinogen B (P17538 34-164 limits assumed, other chains not shown): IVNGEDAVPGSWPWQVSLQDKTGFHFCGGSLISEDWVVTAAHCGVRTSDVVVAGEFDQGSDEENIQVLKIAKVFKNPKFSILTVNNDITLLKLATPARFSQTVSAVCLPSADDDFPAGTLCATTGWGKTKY
Chain of Chymotrypsinogen B (P17538 167-263 limits assumed, other chains not shown): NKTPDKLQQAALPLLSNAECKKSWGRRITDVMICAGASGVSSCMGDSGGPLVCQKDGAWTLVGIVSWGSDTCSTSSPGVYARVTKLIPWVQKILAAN

T1 sequence (A3EZJ3 whole entry): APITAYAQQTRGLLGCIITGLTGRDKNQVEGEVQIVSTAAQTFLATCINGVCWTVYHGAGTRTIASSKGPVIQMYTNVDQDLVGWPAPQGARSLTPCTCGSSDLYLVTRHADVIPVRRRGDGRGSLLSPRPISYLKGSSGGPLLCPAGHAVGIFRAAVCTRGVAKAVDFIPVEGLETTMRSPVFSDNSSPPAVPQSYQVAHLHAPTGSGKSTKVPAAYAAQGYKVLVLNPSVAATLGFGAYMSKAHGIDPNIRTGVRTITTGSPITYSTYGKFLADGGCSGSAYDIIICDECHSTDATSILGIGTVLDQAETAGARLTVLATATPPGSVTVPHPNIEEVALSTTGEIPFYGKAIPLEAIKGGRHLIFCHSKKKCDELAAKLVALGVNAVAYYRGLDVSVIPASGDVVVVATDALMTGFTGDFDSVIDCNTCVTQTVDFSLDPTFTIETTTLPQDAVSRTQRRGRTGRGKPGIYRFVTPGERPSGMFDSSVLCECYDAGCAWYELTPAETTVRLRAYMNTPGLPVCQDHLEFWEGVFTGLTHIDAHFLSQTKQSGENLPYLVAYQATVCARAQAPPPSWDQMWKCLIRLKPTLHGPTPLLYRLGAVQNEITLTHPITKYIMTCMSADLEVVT

SMILES	IC50 [1] [µM]	other results
CC(C)[C@H](NC(=O)[C@@H](NC(=O)CCCC(=O)O)C1CCCCC1)C(=O)N1C[C@H](OCc2cccc3ccccc23)C[C@H]1C(=O)NC1(C(=O)O)CC1 (Glutaryl-[Chg]V[Hyp](CH2(1-naphthyl))[Ac3c]-OH)	0.9	–
CCC[C@H](NC(=O)[C@@H]1CCCN1C(=O)[C@@H](NC(=O)[C@@H](NC(=O)[C@@H](CC(=O)O)NC(=O)[C@H](CC(=O)O)NC(C)=O)[C@@H](C)CC)C(C)C)C(=O)O (Ac-D[dD]IVP[Nva]-OH)	17	–
CCC[C@H](NC(=O)[C@@H]1C[C@@H](OCc2cccc(C)c2)CN1C(=O)[C@@H](NC(=O)[C@@H](NC(=O)[C@H](CC(=O)O)NC(=O)[C@H](CC(=O)O)NC(C)=O)[C@@H](C)CC)C(C)C)C(=O)O (Ac-DDIV[Hyp](mXylylene)[Nva]-OH)	3.5	–
CCC[C@H](NC(=O)[C@@H]1C[C@@H](OCc2ccc3ccccc3c2)CN1C(=O)[C@@H](NC(=O)[C@@H](NC(=O)[C@@H](CCC(=O)O)NC(=O)[C@H](CC(=O)O)NC(C)=O)C1CCCCC1)C(C)C)C(=O)O (Ac-D[dE][Chg]V[Hyp](X1)[Nva]-OH)	0.027	IC50 [3]: > 300 µM; Ki [4]: 0.003 µM; IC50 [5]: > 300 µM; IC50 [2]: > 300 µM
CCC[C@H](NC(=O)[C@@H]1C[C@@H](CCc2ccccc2)CN1C(=O)[C@@H](NC(=O)[C@@H](NC(=O)[C@H](CC(=O)O)NC(=O)[C@H](CC(=O)O)NC(C)=O)[C@@H](C)CC)C(C)C)C(=O)O (Ac-DDIV[X3][Nva]-OH)	10	–
CCC[C@H](NC(=O)[C@@H]1CCCN1C(=O)[C@@H](NC(=O)[C@@H](NC(=O)[C@@H](CCC(=O)O)NC(=O)[C@H](CC(=O)O)NC(C)=O)[C@@H](C)CC)C(C)C)C(=O)O (Ac-D[dE]IVP[Nva]-OH)	7.5	–
CCC[C@H](NC(=O)[C@@H]1CCCN1C(=O)[C@@H](NC(=O)[C@@H](NC(=O)[C@H](CC(=O)O)NC(=O)[C@H](CC(=O)O)NC(C)=O)[C@@H](C)CC)C(C)C)C(=O)O (Ac-DDIVP[Nva]-OH)	150	–

Further molecules by falling IC50 [1], results first:

IC50 [1] [µM]	SMILES	other results
93	CCC[C@H](NC(=O)[C@@H]1C[C@@H](O)CN1C(=O)[C@@H](NC(=O)[C@@H](NC(=O)[C@H](CC(=O)O)NC(=O)[C@H](CC(=O)O)NC(C)=O)[C@@H](C)CC)C(C)C)C(=O)O (Ac-DDIV[Hyp][Nva]-OH)	–
60	CCC[C@H](NC(=O)[C@@H]1C[C@@H](Cc2ccccc2)CN1C(=O)[C@@H](NC(=O)[C@@H](NC(=O)[C@H](CC(=O)O)NC(=O)[C@H](CC(=O)O)NC(C)=O)[C@@H](C)CC)C(C)C)C(=O)O (Ac-DDIV[Pro(4R-Bn)][Nva]-OH)	–
54	CC[C@H](C)[C@H](NC(=O)[C@H](CC(=O)O)NC(=O)[C@H](CC(=O)O)NC(C)=O)C(=O)N[C@H](C(=O)N1CCC[C@H]1C(=O)NC1(C(=O)O)CC1)C(C)C (Ac-DDIVP[Ac3c]-OH)	–
22	CCC[C@H](NC(=O)[C@@H]1CCCN1C(=O)[C@@H](NC(=O)[C@@H](NC(=O)[C@@H](CC(=O)O)NC(=O)[C@H](CC(=O)O)NC(C)=O)[C@@H](C)CC)C(C)C)C(=O)C(F)(F)F (Ac-D[dD]IVP[Nva]-CF3)	–
6.8	CCC[C@H](NC(=O)[C@@H]1C[C@@H](OCc2ccccc2C)CN1C(=O)[C@@H](NC(=O)[C@@H](NC(=O)[C@H](CC(=O)O)NC(=O)[C@H](CC(=O)O)NC(C)=O)[C@@H](C)CC)C(C)C)C(=O)O (Ac-DDIV[Hyp](oXylylene)[Nva]-OH)	–
3.5	CC(=O)N[C@H](C(=O)N[C@H](C(=O)N1C[C@H](OCc2cccc3ccccc23)C[C@H]1C(=O)NC1(C(=O)O)CC1)C(C)C)C1CCCCC1 (Ac-[Chg]V[Hyp](CH2(1-naphthyl))[Ac3c]-OH)	IC50 [2]: > 600 µM
3.3	CCC[C@H](NC(=O)[C@@H]1C[C@@H](CCCc2ccccc2)CN1C(=O)[C@@H](NC(=O)[C@@H](NC(=O)[C@H](CC(=O)O)NC(=O)[C@H](CC(=O)O)NC(C)=O)[C@@H](C)CC)C(C)C)C(=O)O (Ac-DDIV[X2][Nva]-OH)	–
2.5	CCC[C@H](NC(=O)[C@@H]1C[C@@H](OCc2ccc(C)cc2)CN1C(=O)[C@@H](NC(=O)[C@@H](NC(=O)[C@H](CC(=O)O)NC(=O)[C@H](CC(=O)O)NC(C)=O)[C@@H](C)CC)C(C)C)C(=O)O (Ac-DDIV[Hyp](Meb)[Nva]-OH)	–
0.71	CCC[C@H](NC(=O)[C@@H]1C[C@@H](OCc2ccc3ccccc3c2)CN1C(=O)[C@@H](NC(=O)[C@@H](NC(=O)[C@H](CC(=O)O)NC(=O)[C@H](CC(=O)O)NC(C)=O)[C@@H](C)CC)C(C)C)C(=O)O (Ac-DDIV[Hyp](X1)[Nva]-OH)	–
0.39	CCC[C@H](NC(=O)[C@@H]1C[C@@H](OCc2cccc3ccccc23)CN1C(=O)[C@@H](NC(=O)[C@@H](NC(=O)[C@H](CC(=O)O)NC(=O)[C@H](CC(=O)O)NC(C)=O)[C@@H](C)CC)C(C)C)C(=O)O (Ac-DDIV[Hyp](CH2(1-naphthyl))[Nva]-OH)	–
0.013	CC(=O)N[C@@H](CC(=O)O)C(=O)N[C@H](CCC(=O)O)C(=O)N[C@H](C(=O)N[C@H](C(=O)N1C[C@H](OCc2cccc3ccccc23)C[C@H]1C(=O)NC1(C(=O)O)CC1)C(C)C)C1CCCCC1 (Ac-D[dE][Chg]V[Hyp](CH2(1-naphthyl))[Ac3c]-OH)	–
